Reference: the supplement of paper PMC10733146

Columns and labels:
Experiment in all cases: viability relative to DMSO control (fraction); higher = less drug effect (more viable cells)
Conditions in all cases: 48 h
Midostaurin hydrate = compound: CO[C@@H]1[C@H](N(C)C(=O)c2ccccc2)C[C@H]2O[C@]1(C)n1c3ccccc3c3c4c(c5c6ccccc6n2c5c31)C(=O)NC4 [Midostaurin hydrate]
In short: (§1)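 Viability was quantified by CellTiter-Glo luminescence and related to the median of 16 inner DMSO wells. Before that, primary mononuclear tumour cells, fresh or cryopreserved and Ficoll-isolated from blood or bone marrow or prepared from processed lymph node, were plated at 4 × 10^4 cells per well in 384-well plates containing pre-plated compounds at five concentrations, one well each. Plates were incubated in RPMI-1640 with penicillin/streptomycin, L-glutamine and human serum at 37 °C and 5% CO2 for 48 h.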

Venetoclax = compound: CC1(C)CCC(CN2CCN(c3ccc(C(=O)NS(=O)(=O)c4ccc(NCC5CCOCC5)c([N+](=O)[O-])c4)c(Oc4cnc5[nH]ccc5c4)c3)CC2)=C(c2ccc(Cl)cc2)C1 [Venetoclax]
In short: as §1

[1] = compound: C[C@H]1C[C@@H](n2c(Nc3ccc(OC(F)(F)F)cc3)nc3cc(CCC(=O)O)ccc32)CC(C)(C)C1
In short: as §1

SGC 0946 = compound: CC(C)N(CCCNC(=O)Nc1ccc(C(C)(C)C)cc1)C[C@H]1O[C@@H](n2cc(Br)c3c(N)ncnc32)[C@H](O)[C@@H]1O [SGC 0946]
In short: as §1

CPI-169 = compound: CCS(=O)(=O)N1CCC([C@@H](C)n2c(C)c(C(=O)NCc3c(OC)cc(C)[nH]c3=O)c3ccccc32)CC1 [CPI-169]
In short: as §1

Vindesine = compound: CC[C@]1(O)C[C@@H]2CN(CCc3c([nH]c4ccccc34)[C@@](C(=O)OC)(c3cc4c(cc3OC)N(C)[C@H]3[C@@](O)(C(N)=O)[C@H](O)[C@]5(CC)C=CCN6CC[C@]43[C@@H]65)C2)C1 [Vindesine]
In short: as §1

Idasanutlin (RS7388) = compound: COc1cc(C(=O)O)ccc1NC(=O)[C@@H]1N[C@@H](CC(C)(C)C)[C@](C#N)(c2ccc(Cl)cc2F)[C@H]1c1cccc(Cl)c1F [Idasanutlin (RS7388)]
In short: as §1

Everolimus = compound: CO[C@H]1C[C@@H]2CC[C@@H](C)[C@@](O)(O2)C(=O)C(=O)N2CCCC[C@H]2C(=O)O[C@H]([C@H](C)C[C@@H]2CC[C@@H](OCCO)[C@H](OC)C2)CC(=O)[C@H](C)/C=C(\C)[C@@H](O)[C@@H](OC)C(=O)[C@H](C)C[C@H](C)/C=C/C=C/C=C/1C [Everolimus]
In short: as §1

Entospletinib = compound: c1cn2cc(-c3ccc4cn[nH]c4c3)nc(Nc3ccc(N4CCOCC4)cc3)c2n1 [Entospletinib]
In short: as §1

[2] = compound: CCc1ccc(/C=C2/SC(=S)NC2=O)cc1
In short: as §1

[3] = compound: C[C@H](NC(=O)CCC(F)(F)F)C(=O)N[C@@H]1C(=O)N(CCO)c2ncccc2-c2ccccc21
In short: as §1

EPZ-6438 = compound: CCN(c1cc(-c2ccc(CN3CCOCC3)cc2)cc(C(=O)NCc2c(C)cc(C)[nH]c2=O)c1C)C1CCOCC1 [EPZ-6438]
In short: as §1

Tofacitinib = compound: C[C@@H]1CCN(C(=O)CC#N)C[C@@H]1N(C)c1ncnc2[nH]ccc12 [Tofacitinib]
In short: as §1

Test System: primary AML patient cells (S060)
- viability (Midostaurin hydrate; 0.024 µM): 1.06
- viability (Midostaurin hydrate; 0.12 µM): 1.02
- viability (Midostaurin hydrate; 0.6 µM): 1.07
- viability (Midostaurin hydrate; 3 µM): 1.08
- viability (Midostaurin hydrate; 15 µM): 1.07
- viability (Venetoclax; 0.00064 µM): 1.01
- viability (Venetoclax; 0.0032 µM): 1.01
- viability (Venetoclax; 0.016 µM): 0.978
- viability (Venetoclax; 0.08 µM): 1.05
- viability (Venetoclax; 0.4 µM): 1
- viability ([1]; 0.024 µM): 0.919
- viability ([1]; 0.12 µM): 1.1
- viability ([1]; 0.6 µM): 1.01
- viability ([1]; 3 µM): 0.993
- viability ([1]; 15 µM): 0.986
- viability (SGC 0946; 0.024 µM): 1.02
- viability (SGC 0946; 0.12 µM): 1.06
- viability (SGC 0946; 0.6 µM): 1
- viability (SGC 0946; 3 µM): 0.955
- viability (SGC 0946; 15 µM): 0.822
- viability (CPI-169; 0.024 µM): 1.07
- viability (CPI-169; 0.12 µM): 1.07
- viability (CPI-169; 0.6 µM): 1.06
- viability (CPI-169; 3 µM): 1.14
- viability (CPI-169; 15 µM): 1.18
- viability (Vindesine; 0.016 µM): 0.97
- viability (Vindesine; 0.08 µM): 0.901
- viability (Vindesine; 0.4 µM): 0.95
- viability (Vindesine; 2 µM): 0.922
- viability (Vindesine; 10 µM): 0.948
- viability (Idasanutlin (RS7388); 0.032 µM): 0.927
- viability (Idasanutlin (RS7388); 0.16 µM): 1.11
- viability (Idasanutlin (RS7388); 0.8 µM): 1.17
- viability (Idasanutlin (RS7388); 4 µM): 1.01
- viability (Idasanutlin (RS7388); 20 µM): 1.19
- viability (Everolimus; 0.0032 µM): 1.02
- viability (Everolimus; 0.016 µM): 1.03
- viability (Everolimus; 0.08 µM): 1
- viability (Everolimus; 0.4 µM): 1.08
- viability (Everolimus; 2 µM): 1.02
- viability (Entospletinib; 0.024 µM): 0.993
- viability (Entospletinib; 0.12 µM): 1.03
- viability (Entospletinib; 0.6 µM): 1
- viability (Entospletinib; 3 µM): 1.06
- viability (Entospletinib; 15 µM): 1.08
- viability ([2]; 0.024 µM): 0.968
- viability ([2]; 0.12 µM): 0.967
- viability ([2]; 0.6 µM): 0.988
- viability ([2]; 3 µM): 0.943
- viability ([2]; 15 µM): 0.986
- viability ([3]; 0.016 µM): 1.09
- viability ([3]; 0.08 µM): 1.06
- viability ([3]; 0.4 µM): 0.976
- viability ([3]; 2 µM): 1.05
- viability ([3]; 10 µM): 0.92
- viability (EPZ-6438; 0.024 µM): 1.02
- viability (EPZ-6438; 0.12 µM): 1.05
- viability (EPZ-6438; 0.6 µM): 1.03
- viability (EPZ-6438; 3 µM): 1.05
- viability (EPZ-6438; 15 µM): 1.05
- viability (Tofacitinib; 0.024 µM): 0.977
- viability (Tofacitinib; 0.12 µM): 0.93
- viability (Tofacitinib; 0.6 µM): 0.946
- viability (Tofacitinib; 3 µM): 0.893
- viability (Tofacitinib; 15 µM): 0.907

Test System: primary ALL patient cells (S048)
- viability (Midostaurin hydrate; 0.024 µM): 0.98
- viability (Midostaurin hydrate; 0.12 µM): 0.918
- viability (Midostaurin hydrate; 0.6 µM): 0.889
- viability (Midostaurin hydrate; 3 µM): 0.556
- viability (Midostaurin hydrate; 15 µM): 0.182
- viability (Venetoclax; 0.00064 µM): 0.803
- viability (Venetoclax; 0.0032 µM): 0.317
- viability (Venetoclax; 0.016 µM): 0.0881
- viability (Venetoclax; 0.08 µM): 0.0546
- viability (Venetoclax; 0.4 µM): 0.0458
- viability ([1]; 0.024 µM): 0.771
- viability ([1]; 0.12 µM): 0.831
- viability ([1]; 0.6 µM): 0.596
- viability ([1]; 3 µM): 0.641
- viability ([1]; 15 µM): 0.642
- viability (SGC 0946; 0.024 µM): 0.807
- viability (SGC 0946; 0.12 µM): 0.829
- viability (SGC 0946; 0.6 µM): 0.781
- viability (SGC 0946; 3 µM): 0.695
- viability (SGC 0946; 15 µM): 0.303
- viability (CPI-169; 0.024 µM): 0.675
- viability (CPI-169; 0.12 µM): 0.606
- viability (CPI-169; 0.6 µM): 0.631
- viability (CPI-169; 3 µM): 0.621
- viability (CPI-169; 15 µM): 0.604
- viability (Vindesine; 0.016 µM): 0.395
- viability (Vindesine; 0.08 µM): 0.179
- viability (Vindesine; 0.4 µM): 0.111
- viability (Vindesine; 2 µM): 0.0967
- viability (Vindesine; 10 µM): 0.0648
- viability (Idasanutlin (RS7388); 0.032 µM): 0.695
- viability (Idasanutlin (RS7388); 0.16 µM): 0.556
- viability (Idasanutlin (RS7388); 0.8 µM): 0.235
- viability (Idasanutlin (RS7388); 4 µM): 0.0549
- viability (Idasanutlin (RS7388); 20 µM): 0.0421
- viability (Everolimus; 0.0032 µM): 0.862
- viability (Everolimus; 0.016 µM): 0.757
- viability (Everolimus; 0.08 µM): 0.769
- viability (Everolimus; 0.4 µM): 0.716
- viability (Everolimus; 2 µM): 0.777
- viability (Entospletinib; 0.024 µM): 0.996
- viability (Entospletinib; 0.12 µM): 1.03
- viability (Entospletinib; 0.6 µM): 1.02
- viability (Entospletinib; 3 µM): 0.984
- viability (Entospletinib; 15 µM): 0.944
- viability ([2]; 0.024 µM): 0.58
- viability ([2]; 0.12 µM): 0.664
- viability ([2]; 0.6 µM): 0.749
- viability ([2]; 3 µM): 0.782
- viability ([2]; 15 µM): 0.701
- viability ([3]; 0.016 µM): 1.03
- viability ([3]; 0.08 µM): 1.08
- viability ([3]; 0.4 µM): 1.03
- viability ([3]; 2 µM): 1.06
- viability ([3]; 10 µM): 0.965
- viability (EPZ-6438; 0.024 µM): 1.01
- viability (EPZ-6438; 0.12 µM): 0.973
- viability (EPZ-6438; 0.6 µM): 1.03
- viability (EPZ-6438; 3 µM): 0.918
- viability (EPZ-6438; 15 µM): 0.753
- viability (Tofacitinib; 0.024 µM): 0.757
- viability (Tofacitinib; 0.12 µM): 0.728
- viability (Tofacitinib; 0.6 µM): 0.766
- viability (Tofacitinib; 3 µM): 0.796
- viability (Tofacitinib; 15 µM): 0.693

Test System: primary AML patient cells (S011)
- viability (Midostaurin hydrate; 0.024 µM): 1.03
- viability (Midostaurin hydrate; 0.12 µM): 1.14
- viability (Midostaurin hydrate; 0.6 µM): 1.13
- viability (Midostaurin hydrate; 3 µM): 1.12
- viability (Midostaurin hydrate; 15 µM): 0.885
- viability (Venetoclax; 0.00064 µM): 0.924
- viability (Venetoclax; 0.0032 µM): 0.426
- viability (Venetoclax; 0.016 µM): 0.112
- viability (Venetoclax; 0.08 µM): 0.0714
- viability (Venetoclax; 0.4 µM): 0.0597
- viability ([1]; 0.024 µM): 0.581
- viability ([1]; 0.12 µM): 0.785
- viability ([1]; 0.6 µM): 0.741
- viability ([1]; 3 µM): 0.884
- viability ([1]; 15 µM): 0.992
- viability (SGC 0946; 0.024 µM): 0.939
- viability (SGC 0946; 0.12 µM): 0.895
- viability (SGC 0946; 0.6 µM): 0.925
- viability (SGC 0946; 3 µM): 0.779
- viability (SGC 0946; 15 µM): 0.303
- viability (CPI-169; 0.024 µM): 0.964
- viability (CPI-169; 0.12 µM): 0.888
- viability (CPI-169; 0.6 µM): 0.915
- viability (CPI-169; 3 µM): 0.906
- viability (CPI-169; 15 µM): 0.841
- viability (Vindesine; 0.016 µM): 0.285
- viability (Vindesine; 0.08 µM): 0.323
- viability (Vindesine; 0.4 µM): 0.149
- viability (Vindesine; 2 µM): 0.171
- viability (Vindesine; 10 µM): 0.129
- viability (Idasanutlin (RS7388); 0.032 µM): 0.59
- viability (Idasanutlin (RS7388); 0.16 µM): 0.528
- viability (Idasanutlin (RS7388); 0.8 µM): 0.259
- viability (Idasanutlin (RS7388); 4 µM): 0.115
- viability (Idasanutlin (RS7388); 20 µM): 0.0835
- viability (Everolimus; 0.0032 µM): 0.935
- viability (Everolimus; 0.016 µM): 0.964
- viability (Everolimus; 0.08 µM): 0.893
- viability (Everolimus; 0.4 µM): 0.932
- viability (Everolimus; 2 µM): 0.882
- viability (Entospletinib; 0.024 µM): 1
- viability (Entospletinib; 0.12 µM): 1.4
- viability (Entospletinib; 0.6 µM): 1.03
- viability (Entospletinib; 3 µM): 0.992
- viability (Entospletinib; 15 µM): 0.861
- viability ([2]; 0.024 µM): 0.879
- viability ([2]; 0.12 µM): 0.987
- viability ([2]; 0.6 µM): 1.46
- viability ([2]; 3 µM): 0.82
- viability ([2]; 15 µM): 0.759
- viability ([3]; 0.016 µM): 0.935
- viability ([3]; 0.08 µM): 1.08
- viability ([3]; 0.4 µM): 1.08
- viability ([3]; 2 µM): 1.09
- viability ([3]; 10 µM): 0.936
- viability (EPZ-6438; 0.024 µM): 1.16
- viability (EPZ-6438; 0.12 µM): 0.955
- viability (EPZ-6438; 0.6 µM): 1.07
- viability (EPZ-6438; 3 µM): 1.05
- viability (EPZ-6438; 15 µM): 1.39
- viability (Tofacitinib; 0.024 µM): 0.973
- viability (Tofacitinib; 0.12 µM): 0.955
- viability (Tofacitinib; 0.6 µM): 0.965
- viability (Tofacitinib; 3 µM): 0.983
- viability (Tofacitinib; 15 µM): 0.895
